# Data as given in patent publication US5843449A, “Proteins and novel peptides derived from autoantigen for use in immunotherapy of autoimmune diseases” (Akzo Nobel N.V., priority 1996, dated 1998).
# Read-outs that look alike come from different tables or passages of the source. Residues, ends and D or L forms follow the SMILES beside them.
# Assays:
# PBMC from RA patients = assay: Proliferative responses of PBMC from RA patients (3H-thymidine); type: cell-based, human; settings: 10% autologous serum
# Procedure: Peripheral blood mononuclear cells (PBMC) from patients who were diagnosed as suffering from RA according to the American Rheumatism Association (ARA) criteria (Arnett et al., Arthritis Rheum. 31:315, 1988) were collected.
# (§1) PBMC obtained from heparinized venous peripheral blood were isolated by standard centrifugation on a Ficoll-Paque gradient. […] Cultures were incubated in a total volume of 210 μl for 7 days at 37° C. in a humidified atmosphere of 5% CO2. Cultures were pulsed during the last 18 hours with 0.25 μCi^3 H-thymidine.
# [1] = molecular target: T1, DR4Dw4 (DRB1*0401) HLA-DR molecules (Homo sapiens, UniProt P01903+P01911, A100K/A169T/F76Y/I96L/K127E/L162R/M171V/N62H/P40V/Q125Y/R42H/S133A/S149N/S66Y/V115G/V209L/W38E); assay: HLA-DR peptide binding assay (competition with biotinylated marker peptide), DR4Dw4; settings: pH = 5, 50 nM biotin-spacer-IHA(307-319)F marker peptide
# T1 construct: endogenous in cells; host or cells: BSM, EBV-transformed B-cell line
# DR4Dw14 HLA-DR molecules = assay: HLA-DR peptide binding assay (competition with biotinylated marker peptide), DR4Dw14; parameters: species or system human; settings: pH = 5, 50 nM biotin-spacer-IHA(307-319)F marker peptide
# PBMC from healthy donors = assay: Proliferative responses of PBMC from healthy donors (3H-thymidine); type: cell-based, human; settings: 10% autologous serum
# Procedure: PBMC's from healthy donors carrying the DR4Dw4 (DRB1*0401) or the DR1 specificity were collected as a control.
# as §1
smiles,measurement,setting,value
CC(C)[C@H](N)C(=O)NCC(=O)N[C@@H](Cc1ccc(O)cc1)C(=O)N[C@@H](CC(=O)O)C(=O)N[C@@H](CC(=O)O)C(=O)N[C@@H](CCC(N)=O)C(=O)N[C@@H](CCC(=O)O)C(=O)N[C@@H](CO)C(=O)N[C@H](C(=O)N[C@@H](CCCCN)C(=O)N[C@@H](CO)C(=O)N[C@@H](CCCCN)C(=O)N[C@H](C(=O)O)C(C)C)C(C)C [Peptide 3] (H-VGYDDQESVKSKV-OH),"Proliferative response, stimulation index (SI)","PBMC from RA patients; RA patient 191-03 (HR), disease state IV, peptide 10 μg/l",1
same,"Proliferative response, stimulation index (SI)","PBMC from RA patients; RA patient 191-03 (HR), disease state IV, peptide 100 μg/l",< 2
same,"Proliferative response, stimulation index (SI)","PBMC from RA patients; RA patient 215-0 (HR), disease state III-IV, peptide 25 μg/l",3
same,"Proliferative response, stimulation index (SI)","PBMC from RA patients; RA patient 215-0 (HR), disease state III-IV, peptide 100 μg/l",6
same,"Proliferative response, stimulation index (SI)","PBMC from RA patients; RA patient 240-0 (HR), disease state II-III, peptide 25 μg/l",2
same,"Proliferative response, stimulation index (SI)","PBMC from RA patients; RA patient 240-0 (HR), disease state II-III, peptide 100 μg/l",6
same,"Proliferative response, stimulation index (SI)","PBMC from RA patients; RA patient 242-0 (HR), disease state I, peptide 25 μg/l",9
same,"Proliferative response, stimulation index (SI)","PBMC from RA patients; RA patient 242-0 (HR), disease state I, peptide 100 μg/l",3
same,"Proliferative response, stimulation index (SI)","PBMC from RA patients; RA patient 243-0 (R), disease state III, peptide 10 μg/l",1
same,"Proliferative response, stimulation index (SI)","PBMC from RA patients; RA patient 243-0 (R), disease state III, peptide 100 μg/l",1
same,"Proliferative response, stimulation index (SI)","PBMC from RA patients; RA patient 247-0 (R), disease state III, peptide 10 μg/l",1
same,"Proliferative response, stimulation index (SI)","PBMC from RA patients; RA patient 248-0 (R), disease state III, peptide 10 μg/l",1
same,"Proliferative response, stimulation index (SI)","PBMC from RA patients; RA patient 248-0 (R), disease state III, peptide 100 μg/l",1
same,"Proliferative response, stimulation index (SI)","PBMC from RA patients; RA patient 272-0 (HR), disease state III-IV, peptide 10 μg/l",< 1
same,"Proliferative response, stimulation index (SI)","PBMC from RA patients; RA patient 272-0 (HR), disease state III-IV, peptide 100 μg/l",< 1
same,"Proliferative response, stimulation index (SI)","PBMC from RA patients; RA patient 273-0 (HR), disease state IV, peptide 10 μg/l",1
same,"Proliferative response, stimulation index (SI)","PBMC from RA patients; RA patient 273-0 (HR), disease state IV, peptide 100 μg/l",6
same,"Proliferative response, stimulation index (SI)","PBMC from RA patients; RA patient 275-0 (HR), disease state III, peptide 10 μg/l",1
same,"Proliferative response, stimulation index (SI)","PBMC from RA patients; RA patient 275-0 (HR), disease state III, peptide 100 μg/l",1
same,"Proliferative response, stimulation index (SI)","PBMC from RA patients; RA patient 276-0 (HR), disease state IV, burnt out, peptide 10 μg/l",< 1
same,"Proliferative response, stimulation index (SI)","PBMC from RA patients; RA patient 276-0 (HR), disease state IV, burnt out, peptide 100 μg/l",1
same,"Proliferative response, stimulation index (SI)","PBMC from RA patients; RA patient 280-0 (HR), disease state IV, burnt out, peptide 10 μg/l",1
same,"Proliferative response, stimulation index (SI)","PBMC from RA patients; RA patient 280-0 (HR), disease state IV, burnt out, peptide 100 μg/l",1
same,IC50,"[1]; DOT Blot, densitometer, read-out: ^R IC50, DR4Dw4, DOT Blot",230 nM
same,IC50,"[1]; SDS-PAGE, visual inspection, read-out: ^R IC50, DR4Dw4, SDS-PAGE",1000 nM
same,IC50,"DR4Dw14 HLA-DR molecules; DOT Blot, densitometer, read-out: ^R IC50, DR4Dw14, DOT Blot",> 10000 nM
same,IC50,"DR4Dw14 HLA-DR molecules; SDS-PAGE, visual inspection, read-out: ^R IC50, DR4Dw14, SDS-PAGE",≤ 50000 nM
same,"Proliferative response, stimulation index (SI)","PBMC from healthy donors; healthy donor 155-03 (NR), peptide 10 μg/ml",< 2
same,"Proliferative response, stimulation index (SI)","PBMC from healthy donors; healthy donor 155-03 (NR), peptide 100 μg/ml",1
same,"Proliferative response, stimulation index (SI)","PBMC from healthy donors; healthy donor 156-03 (NR), peptide 10 μg/ml",1
same,"Proliferative response, stimulation index (SI)","PBMC from healthy donors; healthy donor 156-03 (NR), peptide 100 μg/ml",< 1
same,"Proliferative response, stimulation index (SI)","PBMC from healthy donors; healthy donor 157-03 (NR), peptide 10 μg/ml",1
same,"Proliferative response, stimulation index (SI)","PBMC from healthy donors; healthy donor 157-03 (NR), peptide 100 μg/ml",1
same,"Proliferative response, stimulation index (SI)","PBMC from healthy donors; healthy donor 157-04 (R), peptide 10 μg/ml",1
same,"Proliferative response, stimulation index (SI)","PBMC from healthy donors; healthy donor 168-03 (NR), peptide 10 μg/ml",1
same,"Proliferative response, stimulation index (SI)","PBMC from healthy donors; healthy donor 168-03 (NR), peptide 100 μg/ml",1
same,"Proliferative response, stimulation index (SI)","PBMC from healthy donors; healthy donor 168.02 (NR), peptide 10 μg/ml",< 2
same,"Proliferative response, stimulation index (SI)","PBMC from healthy donors; healthy donor 168.02 (NR), peptide 100 μg/ml",< 2
same,"Proliferative response, stimulation index (SI)","PBMC from healthy donors; healthy donor 169-02 (NR), peptide 10 μg/ml",1
same,"Proliferative response, stimulation index (SI)","PBMC from healthy donors; healthy donor 169-02 (NR), peptide 100 μg/ml",1
same,"Proliferative response, stimulation index (SI)","PBMC from healthy donors; healthy donor 230-01 (NR), peptide 10 μg/ml",1
same,"Proliferative response, stimulation index (SI)","PBMC from healthy donors; healthy donor 230-01 (NR), peptide 100 μg/ml",1
same,"Proliferative response, stimulation index (SI)","PBMC from healthy donors; healthy donor 235-0 (NR), peptide 10 μg/ml",1
same,"Proliferative response, stimulation index (SI)","PBMC from healthy donors; healthy donor 235-0 (NR), peptide 100 μg/ml",< 2
same,"Proliferative response, stimulation index (SI)","PBMC from healthy donors; healthy donor 235-01 (NR), peptide 10 μg/ml",< 1
same,"Proliferative response, stimulation index (SI)","PBMC from healthy donors; healthy donor 235-01 (NR), peptide 100 μg/ml",< 2
same,"Proliferative response, stimulation index (SI)","PBMC from healthy donors; healthy donor 236-01 (NR), peptide 10 μg/ml",1
same,"Proliferative response, stimulation index (SI)","PBMC from healthy donors; healthy donor 236-01 (NR), peptide 100 μg/ml",< 1
same,"Proliferative response, stimulation index (SI)","PBMC from healthy donors; healthy donor 237-0 (NR), peptide 10 μg/ml",< 1
same,"Proliferative response, stimulation index (SI)","PBMC from healthy donors; healthy donor 237-0 (NR), peptide 100 μg/ml",1
same,"Proliferative response, stimulation index (SI)","PBMC from healthy donors; healthy donor 237-01 (NR), peptide 10 μg/ml",1
same,"Proliferative response, stimulation index (SI)","PBMC from healthy donors; healthy donor 237-01 (NR), peptide 100 μg/ml",1
same,"Proliferative response, stimulation index (SI)","PBMC from healthy donors; healthy donor 238-01 (NR), first line so labelled, peptide 10 μg/ml",1
same,"Proliferative response, stimulation index (SI)","PBMC from healthy donors; healthy donor 238-01 (NR), first line so labelled, peptide 100 μg/ml",1
same,"Proliferative response, stimulation index (SI)","PBMC from healthy donors; healthy donor 238-01 (NR), second line so labelled, peptide 10 μg/ml",1
same,"Proliferative response, stimulation index (SI)","PBMC from healthy donors; healthy donor 238-01 (NR), second line so labelled, peptide 100 μg/ml",1
same,"Proliferative response, stimulation index (SI)","PBMC from healthy donors; healthy donor 241-0 (NR), peptide 10 μg/ml",< 1
same,"Proliferative response, stimulation index (SI)","PBMC from healthy donors; healthy donor 241-0 (NR), peptide 100 μg/ml",< 1
same,"Proliferative response, stimulation index (SI)","PBMC from healthy donors; healthy donor 241-01 (R), peptide 10 μg/ml",< 1
same,"Proliferative response, stimulation index (SI)","PBMC from healthy donors; healthy donor 241-01 (R), peptide 100 μg/ml",1
